Tested on: soybean plants
Test: Pre- and post-emergence dicamba tolerance of transgenic soybean
Type: in vivo
Details: wild type soybean; dicamba at post-V3 stage at 1 lb/a rate
From the text: Several DMO expression units were constructed by operably linking one of each various promoters, CTPs, DMO variants, and 3′UTRs to obtain efficient DMO expression units for product development.

COc1c(Cl)ccc(Cl)c1C(=O)O [dicamba, 3,6-dichloro-o-anisic acid]
injury rate: 60%

Reference: patent US8420888B2, “Chloroplast transit peptides for efficient targeting of DMO and uses thereof” (Monsanto Technology LLC, priority 2007, dated 2013)
